Legend:
[1] = tested on: experimental autoimmune encephalomyelitis; assay: Experimental autoimmune encephalomyelitis (EAE), MOG peptide 35-55; assay type: in vivo, C57BL/6 mice; settings: 40 mg/kg/dose once daily i.p. for 30 consecutive days
Experimental: SSAO/VAP-1 is expressed on the endothelium of inflamed tissues/organs including brain and spinal cord. Its ability to support lymphocyte transendothelial migration may be an important systemic function of SSAO/VAP-1 in inflammatory diseases such as multiple sclerosis and Alzheimer's disease. An analysis of the use of SSAO inhibitors to treat inflammatory disease of the central nervous system (CNS) was performed through the use of an experimental autoimmune encephalomyelitis model (EAE) in C57BL/6 mice. EAE in rodents is a well-characterized and reproducible animal model of multiple sclerosis in human (Benson J. M. et al. (2000) J. Clin. Invest. 106:1031). Multiple sclerosis is a chronic immune-mediated disease of the CNS characterized by patchy perivenular inflammatory infiltrates in areas of demyelination and axonal loss. As an animal model, EAE can be induced in mice by immunization with encephalitogenic myelin antigens in the presence of adjuvant. […]
To examine the role of SSAO/VAP-1 as a major regulator of the lymphocyte recruitment to the CNS, compound II-1-E, an SSAO inhibitor, was evaluated in an EAE model.
Twenty female C57BL/6 mice were immunized subcutaneously (s.c). with myelin oligodendrocyte glycoprotein 35-55 (MOG peptide 35-55) in Complete Freund Adjuvant (CFA) on day 0, followed by i.p. injections of 500 ng pertussis toxin (one pertussis toxin injection on day 0, a second pertussis toxin injection on day 2). Groups of 10 mice received either compound II-1-E 40 mg/kg/dose, once daily i.p. for 30 consecutive days), or vehicle control (once/day for 30 consecutive days) all starting from one day after the immunization and all administered i.p. The animals were monitored for body weight, signs of paralysis and death according to a 0-5 scale of scoring system as follows: 1=limp tail or waddling gait with tail tonicity; 2=waddling gait with limp tail (ataxia); 2.5=ataxia with partial limb paralysis; 3=full paralysis of one limb; 3.5=full paralysis of one limb with partial paralysis of second limb; 4=full paralysis of two limbs; 4.5=moribund; 5=death. […]

CCKA (h) (CCK1) = target: T1, CCKA (h) (CCK1) (Homo sapiens, UniProt P32238); assay: Receptor binding screen, [^125I]CCK-8; settings: 10 uM Concentration of Compound I-1-Z; read-out: Mean Value, percent inhibition of control specific binding: CCKA (h) (CCK1)
T1 construct: expressed in transfected cells; host or cells: CHO cells

5-HT2C (h) = target: T2, 5-HT2C (h) (Homo sapiens, UniProt P28335); assay: Receptor binding screen, [^3H]mesulergine; settings: 10 uM Concentration of Compound I-1-Z; read-out: Mean Value, percent inhibition of control specific binding: 5-HT2C (h)
T2 construct: expressed in transfected cells; host or cells: CHO cells

[2] = target: T3, μ (h) (MOP) (agonist site) (Homo sapiens, UniProt P35372); assay: Receptor binding screen, [^3H]DAMGO; settings: 10 uM Concentration of Compound I-1-Z; read-out: Mean Value, percent inhibition of control specific binding: μ (h) (MOP) (agonist site)
T3 construct: expressed in transfected cells; host or cells: HEK-293 cells
Experimental: For Table 4 below, the specific ligand binding to the receptors is defined as the difference between the total binding and the nonspecific binding determined in the presence of an excess of unlabelled ligand. The results are expressed as a percent inhibition of control specific binding obtained in the presence of Compound I-1-Z. The IC50 values (concentration causing a half-maximal inhibition of control specific binding) and Hill coefficients (nH) were determined by non-linear regression analysis of the competition curves using Hill equation curve fitting. The inhibition constants (Ki) were calculated from the Cheng Prusoff equation (Ki=IC50/(1+(L/KD)), where L=concentration of radioligand in the assay, and KD=affinity of the radioligand for the receptor). In each experiment, the respective reference compound was tested concurrently with Compound I-1-Z in order to assess the assay suitability.

CGRP (h) = target: T4, CGRP (h) (Homo sapiens, UniProt O60894+Q16602); assay: Receptor binding screen, [^125I]hCGRPα; settings: 10 uM Concentration of Compound I-1-Z; read-out: Mean Value, percent inhibition of control specific binding: CGRP (h)
T4 construct: expressed in transfected cells; host or cells: CHO cells

NE transporter (h) = target: T5, NE transporter (h) (Homo sapiens, UniProt P23975); assay: Receptor binding screen, [^3H]nisoxetine; settings: 10 uM Concentration of Compound I-1-Z; read-out: Mean Value, percent inhibition of control specific binding: NE transporter (h)
T5 construct: expressed in transfected cells; host or cells: CHO cells

5-HT6 (h) = target: T6, 5-HT6 (h) (Homo sapiens, UniProt P50406); assay: Receptor binding screen, [^3H]LSD; settings: 10 uM Concentration of Compound I-1-Z; read-out: Mean Value, percent inhibition of control specific binding: 5-HT6 (h)
T6 construct: expressed in transfected cells; host or cells: CHO cells

5-HT transporter (h) = target: T7, 5-HT transporter (h) (Homo sapiens, UniProt P31645); assay: Receptor binding screen, [^3H]imipramine; settings: 10 uM Concentration of Compound I-1-Z; read-out: Mean Value, percent inhibition of control specific binding: 5-HT transporter (h)
T7 construct: expressed in transfected cells; host or cells: CHO cells

NT1 (h) (NTS1) = target: T8, NT1 (h) (NTS1) (Homo sapiens, UniProt P30989); assay: Receptor binding screen, [^125I]Tyr^3-neurotensin; settings: 10 uM Concentration of Compound I-1-Z; read-out: Mean Value, percent inhibition of control specific binding: NT1 (h) (NTS1)
T8 construct: expressed in transfected cells; host or cells: CHO cells

M2 (h) = target: T9, M2 (h) (Homo sapiens, UniProt P08172); assay: Receptor binding screen, [^3H]AF-DX 384; settings: 10 uM Concentration of Compound I-1-Z; read-out: Mean Value, percent inhibition of control specific binding: M2 (h)
T9 construct: expressed in transfected cells; host or cells: CHO cells

D2S (h) = target: T10, D2S (h) (Homo sapiens, UniProt P14416); assay: Receptor binding screen, [^3H]spiperone; settings: 10 uM Concentration of Compound I-1-Z; read-out: Mean Value, percent inhibition of control specific binding: D2S (h)
T10 construct: expressed in transfected cells; host or cells: HEK-293 cells

M3 (h) = target: T11, M3 (h) (Homo sapiens, UniProt P20309); assay: Receptor binding screen, [^3H]4-DAMP; settings: 10 uM Concentration of Compound I-1-Z; read-out: Mean Value, percent inhibition of control specific binding: M3 (h)
T11 construct: expressed in transfected cells; host or cells: CHO cells

T8 sequence (P30989 whole entry): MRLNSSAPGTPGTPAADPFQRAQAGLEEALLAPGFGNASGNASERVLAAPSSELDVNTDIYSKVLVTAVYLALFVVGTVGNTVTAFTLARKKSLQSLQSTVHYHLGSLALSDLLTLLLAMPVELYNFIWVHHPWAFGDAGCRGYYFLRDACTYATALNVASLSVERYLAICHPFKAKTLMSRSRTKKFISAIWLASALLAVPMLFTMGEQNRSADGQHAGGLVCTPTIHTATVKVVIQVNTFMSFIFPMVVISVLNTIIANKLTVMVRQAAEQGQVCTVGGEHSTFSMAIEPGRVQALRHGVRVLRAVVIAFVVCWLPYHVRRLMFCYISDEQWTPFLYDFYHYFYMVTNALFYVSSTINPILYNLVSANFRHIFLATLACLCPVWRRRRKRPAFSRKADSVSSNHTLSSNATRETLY
T3 sequence (P35372 whole entry): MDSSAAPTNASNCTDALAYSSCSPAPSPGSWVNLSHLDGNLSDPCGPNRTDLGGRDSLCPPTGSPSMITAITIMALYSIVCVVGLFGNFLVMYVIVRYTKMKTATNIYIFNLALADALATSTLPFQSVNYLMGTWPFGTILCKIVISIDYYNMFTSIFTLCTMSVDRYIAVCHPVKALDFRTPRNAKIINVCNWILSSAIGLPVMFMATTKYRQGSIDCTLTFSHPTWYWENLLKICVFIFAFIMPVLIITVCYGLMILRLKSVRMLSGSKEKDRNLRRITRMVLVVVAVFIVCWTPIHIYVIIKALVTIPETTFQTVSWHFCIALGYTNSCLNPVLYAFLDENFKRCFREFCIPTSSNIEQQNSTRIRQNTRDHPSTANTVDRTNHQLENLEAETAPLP
T10 sequence (P14416 1-414 isoform P14416-2): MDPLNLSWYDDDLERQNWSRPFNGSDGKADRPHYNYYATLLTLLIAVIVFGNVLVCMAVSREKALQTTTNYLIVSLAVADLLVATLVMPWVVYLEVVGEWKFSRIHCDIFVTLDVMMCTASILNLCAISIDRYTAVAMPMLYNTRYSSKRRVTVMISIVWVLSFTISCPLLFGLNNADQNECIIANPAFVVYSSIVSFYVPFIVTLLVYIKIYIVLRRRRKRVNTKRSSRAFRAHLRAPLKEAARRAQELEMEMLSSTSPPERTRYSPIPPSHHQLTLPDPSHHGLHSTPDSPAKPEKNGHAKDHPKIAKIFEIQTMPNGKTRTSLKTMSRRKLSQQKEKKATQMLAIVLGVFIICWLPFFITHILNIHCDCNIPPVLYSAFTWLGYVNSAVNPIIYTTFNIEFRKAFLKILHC
T2 sequence (P28335 33-458): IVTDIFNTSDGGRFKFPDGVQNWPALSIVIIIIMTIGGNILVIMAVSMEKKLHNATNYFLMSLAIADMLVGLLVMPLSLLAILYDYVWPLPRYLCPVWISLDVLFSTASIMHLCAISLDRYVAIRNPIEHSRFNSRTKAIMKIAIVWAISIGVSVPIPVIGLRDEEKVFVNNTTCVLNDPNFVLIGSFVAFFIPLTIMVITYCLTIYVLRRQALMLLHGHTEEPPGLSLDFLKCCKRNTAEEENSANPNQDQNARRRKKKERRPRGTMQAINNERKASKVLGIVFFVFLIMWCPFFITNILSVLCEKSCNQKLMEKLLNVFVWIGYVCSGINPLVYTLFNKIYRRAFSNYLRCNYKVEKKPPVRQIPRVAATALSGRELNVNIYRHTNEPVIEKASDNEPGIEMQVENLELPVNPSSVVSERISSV
T7 sequence (P31645 whole entry): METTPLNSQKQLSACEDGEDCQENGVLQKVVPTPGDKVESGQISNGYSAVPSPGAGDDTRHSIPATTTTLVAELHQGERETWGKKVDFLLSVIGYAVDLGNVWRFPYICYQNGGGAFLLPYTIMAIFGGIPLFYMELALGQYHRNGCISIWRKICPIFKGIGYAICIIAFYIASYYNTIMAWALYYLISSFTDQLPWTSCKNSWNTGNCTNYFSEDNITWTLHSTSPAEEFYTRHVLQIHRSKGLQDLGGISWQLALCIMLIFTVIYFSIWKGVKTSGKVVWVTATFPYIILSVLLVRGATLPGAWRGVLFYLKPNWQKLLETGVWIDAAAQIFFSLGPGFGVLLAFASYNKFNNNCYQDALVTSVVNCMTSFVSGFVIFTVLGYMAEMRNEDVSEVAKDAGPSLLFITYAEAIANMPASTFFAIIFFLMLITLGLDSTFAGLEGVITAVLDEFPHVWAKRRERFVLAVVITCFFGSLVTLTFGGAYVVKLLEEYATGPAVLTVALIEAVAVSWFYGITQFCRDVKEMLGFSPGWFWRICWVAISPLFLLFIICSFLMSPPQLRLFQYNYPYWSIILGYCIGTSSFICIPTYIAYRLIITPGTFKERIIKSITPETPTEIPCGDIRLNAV
T5 sequence (P23975 whole entry): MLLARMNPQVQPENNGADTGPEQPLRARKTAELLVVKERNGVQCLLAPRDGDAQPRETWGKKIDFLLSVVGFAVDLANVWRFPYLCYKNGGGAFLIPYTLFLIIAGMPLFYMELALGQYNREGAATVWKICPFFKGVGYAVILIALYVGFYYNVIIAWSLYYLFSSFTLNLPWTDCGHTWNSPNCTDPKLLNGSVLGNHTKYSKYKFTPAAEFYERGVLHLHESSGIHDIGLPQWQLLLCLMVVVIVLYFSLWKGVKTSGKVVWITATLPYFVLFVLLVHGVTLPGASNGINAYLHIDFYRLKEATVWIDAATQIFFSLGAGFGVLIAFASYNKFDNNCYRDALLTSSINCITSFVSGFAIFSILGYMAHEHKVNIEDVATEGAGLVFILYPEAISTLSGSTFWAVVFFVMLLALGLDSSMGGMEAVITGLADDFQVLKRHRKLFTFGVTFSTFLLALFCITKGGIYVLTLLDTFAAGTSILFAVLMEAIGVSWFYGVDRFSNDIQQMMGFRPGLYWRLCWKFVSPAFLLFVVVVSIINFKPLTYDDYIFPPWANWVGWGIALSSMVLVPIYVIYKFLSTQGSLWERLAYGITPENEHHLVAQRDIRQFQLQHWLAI
T6 sequence (P50406 whole entry): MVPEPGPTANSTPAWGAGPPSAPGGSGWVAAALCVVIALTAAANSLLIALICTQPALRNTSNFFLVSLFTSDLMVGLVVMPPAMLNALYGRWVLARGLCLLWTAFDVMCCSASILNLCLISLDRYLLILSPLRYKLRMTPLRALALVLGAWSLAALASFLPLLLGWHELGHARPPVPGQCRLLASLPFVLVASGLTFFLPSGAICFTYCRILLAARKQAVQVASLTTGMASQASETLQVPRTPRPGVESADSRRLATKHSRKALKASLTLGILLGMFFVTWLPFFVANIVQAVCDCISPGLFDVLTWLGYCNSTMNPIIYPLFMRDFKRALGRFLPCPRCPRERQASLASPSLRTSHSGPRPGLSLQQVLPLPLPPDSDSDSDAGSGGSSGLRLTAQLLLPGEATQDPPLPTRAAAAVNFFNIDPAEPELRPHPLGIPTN
T4 sequence (Q16602 23-461): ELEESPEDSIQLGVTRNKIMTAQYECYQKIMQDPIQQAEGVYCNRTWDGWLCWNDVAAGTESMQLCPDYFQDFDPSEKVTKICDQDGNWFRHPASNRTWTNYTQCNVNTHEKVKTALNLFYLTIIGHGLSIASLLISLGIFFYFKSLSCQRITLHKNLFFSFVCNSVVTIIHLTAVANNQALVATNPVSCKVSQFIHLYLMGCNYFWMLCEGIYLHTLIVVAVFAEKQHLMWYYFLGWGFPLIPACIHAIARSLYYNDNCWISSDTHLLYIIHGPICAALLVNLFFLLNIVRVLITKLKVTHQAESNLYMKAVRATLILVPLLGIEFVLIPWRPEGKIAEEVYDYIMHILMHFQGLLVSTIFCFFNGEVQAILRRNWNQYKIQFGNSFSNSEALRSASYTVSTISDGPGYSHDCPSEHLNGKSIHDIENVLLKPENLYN
T4 sequence (O60894 27-148): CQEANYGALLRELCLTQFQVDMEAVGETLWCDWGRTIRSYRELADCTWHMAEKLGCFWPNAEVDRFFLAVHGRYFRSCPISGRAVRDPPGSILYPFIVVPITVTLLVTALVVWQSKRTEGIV
T1 sequence (P32238 whole entry): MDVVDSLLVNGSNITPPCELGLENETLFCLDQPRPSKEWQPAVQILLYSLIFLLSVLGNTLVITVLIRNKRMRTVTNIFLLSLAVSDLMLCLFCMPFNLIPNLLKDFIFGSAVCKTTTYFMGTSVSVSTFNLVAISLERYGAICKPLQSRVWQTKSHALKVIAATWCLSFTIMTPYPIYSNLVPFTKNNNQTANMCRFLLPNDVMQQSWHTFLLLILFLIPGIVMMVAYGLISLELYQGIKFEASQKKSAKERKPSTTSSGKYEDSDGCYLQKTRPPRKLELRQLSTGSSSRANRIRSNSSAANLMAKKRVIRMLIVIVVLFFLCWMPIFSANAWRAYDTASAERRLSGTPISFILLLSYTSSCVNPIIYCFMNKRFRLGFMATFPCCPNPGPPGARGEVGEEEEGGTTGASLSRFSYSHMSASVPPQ
T9 sequence (P08172 whole entry): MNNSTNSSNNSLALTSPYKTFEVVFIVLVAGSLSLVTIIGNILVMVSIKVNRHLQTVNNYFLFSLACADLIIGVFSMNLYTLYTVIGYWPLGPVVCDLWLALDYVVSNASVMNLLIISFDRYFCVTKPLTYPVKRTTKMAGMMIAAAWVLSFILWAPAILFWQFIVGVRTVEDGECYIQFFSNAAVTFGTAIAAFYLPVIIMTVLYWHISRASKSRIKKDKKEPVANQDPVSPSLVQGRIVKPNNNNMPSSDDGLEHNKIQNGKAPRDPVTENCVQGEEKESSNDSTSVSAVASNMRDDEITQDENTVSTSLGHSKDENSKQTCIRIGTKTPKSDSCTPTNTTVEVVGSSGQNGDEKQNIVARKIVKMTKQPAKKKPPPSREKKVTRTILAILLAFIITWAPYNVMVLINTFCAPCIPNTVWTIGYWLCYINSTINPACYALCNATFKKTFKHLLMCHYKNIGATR

Row | Structure (SMILES) | day until which similar clinical scores between the two groups was not reached [1] [days] | mean clinical score of the treated group from day 14 onward [1] | day at which disease reached 100% incidence ([1]; control group day 13) [days] | inhibition at 10 µM (CCKA (h) (CCK1)) [%] | inhibition at 10 µM (5-HT2C (h)) [%] | inhibition at 10 µM [2] [%] | inhibition at 10 µM (CGRP (h)) [%] | inhibition at 10 µM (NE transporter (h)) [%] | inhibition at 10 µM (5-HT6 (h)) [%] | inhibition at 10 µM (5-HT transporter (h)) [%] | inhibition at 10 µM (NT1 (h) (NTS1)) [%] | inhibition at 10 µM (M2 (h)) [%] | inhibition at 10 µM (D2S (h)) [%] | inhibition at 10 µM (M3 (h)) [%]
1 | NC/C(F)=C\Cc1cc(F)cc(C(F)(F)F)c1 [II-1-E, (E)-2-Fluoro-4-(3-fluoro-5-trifluoromethylphenyl)-but-2-enylamine] | 38 | well below that in the control group | 24 |  |  |  |  |  |  |  |  |  |  | 
2 | COc1ccc(C/C(=C/F)CN)cc1.Cl [Compound I-1-Z, (Z)-3-Fluoro-2-(4-methoxybenzyl)-allylamine hydrochloride] |  |  |  | -13 | 21 | 14 | -7 | 68 | 1 | 47 | -1 | 3 | -4 | 16

Reference: patent US20110269811A1, “INHIBITORS OF SEMICARBAZIDE-SENSITIVE AMINE OXIDASE (SSAO) AND VAP-1 MEDIATED ADHESION USEFUL FOR TREATMENT AND PREVENTION OF DISEASES” (priority 2006, published 2011)
